Tested on: MCH receptors
Test: MCH receptor activity class (method not given)
[1] = class 1-3 by percent of control at 10^-7 M or IC50
[2] = class by percent of control at 10^−7 M or IC50
[3] = class by percent of control at 10^-7 M or IC50
[4] = activity class 1-3: percent of control at 10^-7 M or IC50
[5] = MCH receptor, class by percent of control at 10^-7 M or IC50

In the case of `CC(C(=O)N[C@H]1CC[C@@H](Nc2nc3c(c(N(C)C)n2)CCCC3)CC1)c1ccc(N2Cc3ccccc3C2=O)cc1` (stereo partly drawn) [compound 985, N-(cis-4-{[4-(dimethylamino)-5,6,7,8-tetrahydroquinazolin-2-yl]amino}cyclohexyl)-2-[4-(1-oxo-1,3-dihydro-2H-isoindol-2-yl)pheny]propanamide], the class (activity class per percent of control at 10^-7 M or IC50) is reported as 2 (Class 2: The value of percent of control at 10^−7 M was from 40% to 60% or the value of IC′50 was from 50 nM to 200 nM.).
With `Cc1onc(-c2c(Cl)cccc2Cl)c1C(=O)N[C@H]1CC[C@@H](Nc2nc3c(c(N(C)C)n2)CCCC3)CC1` [compound 570] the class [1] was 1 (Class 1: The value of percent of control at 10^−7 M was less than 40% or the value of IC50 was less than 50 nM.).
`Cc1ccc(C(=O)N[C@H]2CC[C@@H](CNc3ncc(C)c(N(C)C)n3)CC2)cc1` [compound 2713] was tested, and the class [2] was 3 (Class 3 The value of percent of control at 10^−7 M was more than 60% or the value of IC50 was more than 200 nM.).
With `CN(C)c1ccnc(N[C@H]2CC[C@@H](CNCc3ccc(Cl)cc3)CC2)n1` [compound 1270] the class [3] was 3 (Class 3 The value of percent of control at 10^−7 M was more than 60% or the value of IC50 was more than 200 nM.).
With `CN(C)c1nc(N[C@H]2CC[C@@H](CNC(=O)OCc3ccc([N+](=O)[O-])cc3)CC2)nc2c1CCCC2` [compound 618] the class [3] was 3 (Class 3 The value of percent of control at 10^−7 M was more than 60% or the value of IC50 was more than 200 nM.).
With `CSc1ccccc1NC(=O)N[C@H]1CC[C@@H](Nc2nc3c(c(N(C)C)n2)CCCC3)CC1` [compound 1845] the class [3] was 3 (Class 3 The value of percent of control at 10^−7 M was more than 60% or the value of IC50 was more than 200 nM.).
`CN(C)c1cc(N[C@H]2CC[C@@H](NC(=O)CCCc3ccc([N+](=O)[O-])cc3)CC2)nc2ccccc12` [compound 725] was tested, and the class [3] was 3 (Class 3 The value of percent of control at 10^−7 M was more than 60% or the value of IC50 was more than 200 nM.).
In the case of `Cc1cc(C(=O)N[C@H]2CC[C@@H](Nc3nccc(N(C)C)n3)CC2)ccc1Br` [compound 275, 4-bromo-N-(cis-4-{[4-(dimethylamino)pyrimidin-2-yl]amino}cyclohexyl)-3-methylbenzamide], the class [3] is reported as 1 (Class 1: The value of percent of control at 10^−7 M was less than 40% or the value of IC50 was less than 50 nM.).
With `CCOc1cccc(CN[C@H]2CC[C@@H](Nc3nccc(N(C)C)n3)CC2)c1` [compound 1520] the class [4] was 3 (Class 3 The value of percent of control at 10^−7 M was more than 60% or the value of IC50 was more than 200 nM.).
`CN(C)c1nc(N[C@H]2CC[C@@H](NC(=S)NCCC3=CCCCC3)CC2)nc2c1CCCC2` [compound 2058] was tested, and the class [5] was 3 (Class 3 The value of percent of control at 10^−7 M was more than 60% or the value of IC50 was more than 200 nM.).
In the case of `CN(C)c1cc(N[C@H]2CC[C@@H](NC(=O)c3cc(F)c(Cl)cc3Cl)CC2)nc2ccccc12` [compound 39], the class [5] is reported as 3 (Class 3 The value of percent of control at 10^−7 M was more than 60% or the value of IC50 was more than 200 nM.).
`CN(C)c1cc(N[C@H]2CC[C@@H](CNC(=O)OCc3ccc([N+](=O)[O-])cc3)CC2)nc2ccccc12` [compound 1568] was tested, and the class [4] was 3 (Class 3 The value of percent of control at 10^−7 M was more than 60% or the value of IC50 was more than 200 nM.).
For `CN(C)c1cc(N[C@H]2CC[C@@H](CNC(=O)/C=C/c3ccccc3Cl)CC2)nc2ccccc12` [compound 234, (2E)-3-(2-chlorophenyl)-N-[(cis-4-{[4-(dimethylamino)quinolin-2-yl]amino}cyclohexyl)methyl]acrylamide], the class [3] was 2 (Class 2: The value of percent of control at 10^−7 M was from 40% to 60% or the value of IC′50 was from 50 nM to 200 nM.).
`Cc1cccc(C(C)C)c1NC(=S)N[C@H]1CC[C@@H](Nc2nc3c(c(N(C)C)n2)CCCC3)CC1` [compound 1783] was tested, and the class [3] was 3 (Class 3 The value of percent of control at 10^−7 M was more than 60% or the value of IC50 was more than 200 nM.).
For `Cc1cc(N(C)C)nc(N[C@H]2CC[C@@H](C(=O)NCc3ccccc3F)CC2)n1` [compound 2800], the class [2] was 2 (Class 2: The value of percent of control at 10^−7 M was from 40% to 60% or the value of IC′50 was from 50 nM to 200 nM.).
`Cc1onc(-c2ccccc2Cl)c1C(=O)N[C@H]1CC[C@@H](Nc2nc3c(c(N(C)C)n2)CCCC3)CC1` [compound 534] was tested, and the class [1] was 2 (Class 2: The value of percent of control at 10^−7 M was from 40% to 60% or the value of IC′50 was from 50 nM to 200 nM.).
With `COc1ccc(Br)c(C(=O)N[C@H]2CC[C@@H](Nc3nccc(N(C)C)n3)CC2)c1` [compound 339] the class [3] was 3 (Class 3 The value of percent of control at 10^−7 M was more than 60% or the value of IC50 was more than 200 nM.).
With `CN(C)c1nc(N[C@H]2CC[C@@H](CNCc3cc(Cl)cc(Br)c3O)CC2)nc2c1CCCC2` [compound 1404] the class [3] was 2 (Class 2: The value of percent of control at 10^−7 M was from 40% to 60% or the value of IC′50 was from 50 nM to 200 nM.).
With `CCc1ccccc1CNC[C@H]1CC[C@@H](Nc2nc3c(c(N(C)C)n2)CCCC3)CC1` [compound 1443] the class [3] was 3 (Class 3 The value of percent of control at 10^−7 M was more than 60% or the value of IC50 was more than 200 nM.).
`CN(C)c1ccnc(N[C@H]2CC[C@@H](NC(=O)c3ccc([N+](=O)[O-])s3)CC2)n1` [compound 827, N-(cis-4-{[4-(dimethylamino)pyrimidin-2-yl]amino}cyclohexyl)-5-nitrothiophene-2-carboxamide] was tested, and the class [3] was 2 (Class 2: The value of percent of control at 10^−7 M was from 40% to 60% or the value of IC′50 was from 50 nM to 200 nM.).
With `CN(C)c1nc(N[C@H]2CC[C@@H](NC(=S)Nc3ccc(F)c(Cl)c3)CC2)nc2c1CCCC2` [compound 2071] the class [5] was 3 (Class 3 The value of percent of control at 10^−7 M was more than 60% or the value of IC50 was more than 200 nM.).
With `CN(C)c1nc(N[C@H]2CC[C@@H](CNC(=O)c3cc(F)c(Cl)cc3Cl)CC2)nc2c1CCCC2` [compound 601] the class [1] was 3 (Class 3 The value of percent of control at 10^−7 M was more than 60% or the value of IC50 was more than 200 nM.).
In the case of `CN(C)c1cc(N[C@H]2CC[C@@H](NC(=O)c3csc(-c4cccs4)n3)CC2)nc2ccccc12` [compound 146, N-(cis-4-{[4-(dimethylamino)quinolin-2-yl]amino}cyclohexyl)-2-(2-thienyl)-1,3-thiazole-4-carboxamide], the class [5] is reported as 1 (Class 1: The value of percent of control at 10^−7 M was less than 40% or the value of IC50 was less than 50 nM.).
With `Cc1noc(-c2ccccc2)c1NC(=O)NC[C@H]1CC[C@@H](Nc2nccc(N(C)C)n2)CC1` [compound 2437] the class (MCH receptor activity class 1-3 (percent of control at 10^-7 M or IC50)) was 1 (Class 1: The value of percent of control at 10^−7 M was less than 40% or the value of IC50 was less than 50 nM.).
With `CC(NC(=S)N[C@H]1CC[C@@H](Nc2nc3c(c(N(C)C)n2)CCCC3)CC1)c1ccccc1` (relative stereo) [compound 2024] the class [5] was 3 (Class 3 The value of percent of control at 10^−7 M was more than 60% or the value of IC50 was more than 200 nM.).
`CCc1cccc(C(C)C)c1NC(=O)N[C@H]1CC[C@@H](Nc2nccc(N(C)C)n2)CC1` [compound 2196] was tested, and the class [3] was 3 (Class 3 The value of percent of control at 10^−7 M was more than 60% or the value of IC50 was more than 200 nM.).
`CN(C)c1cc(N[C@H]2CC[C@@H](NC(=O)Nc3ccccc3Br)CC2)nc2ccccc12` [compound 2123] was tested, and the class [3] was 3 (Class 3 The value of percent of control at 10^−7 M was more than 60% or the value of IC50 was more than 200 nM.).

Source: patent US20050197350A1, “Novel quinoline, tetrahydroquinazoline, and pyrimidine derivatives and methods of treatment related to the use thereof” (TAISHO PHARMACEUTICAL CO., LTD., priority 2003, published 2005)
